Results published in the NIST ThermoML archive (doi:10.1021/je900194v).

Tests used:
[1] = xn = mol fraction of the nth substance listed; conditions: 101 kPa, Liquid; for viscosity: Capillary tube (Ostwald / Ubbelohde) method; for mass density: Vibrating tube method
[2] = 101 kPa, Liquid; for viscosity: Capillary tube (Ostwald / Ubbelohde) method; for mass density: Vibrating tube method

Cc1ccccc1C [1,2-dimethylbenzene] + COC(=O)CCCCl
[1], x2 = 0
Conditions	mass density [kg/m3]	viscosity [mPa·s]
298.15 K	875.08	0.758
308.15 K	866.62	0.665
318.15 K	858.12	0.589

COC(=O)CCCCl [methyl 4-chlorobutanoate] + Cc1ccc(C)cc1
[1]
Conditions	mass density, 298.15 K [kg/m3]	mass density, 308.15 K [kg/m3]	mass density, 318.15 K [kg/m3]	viscosity, 298.15 K [mPa·s]	viscosity, 308.15 K [mPa·s]	viscosity, 318.15 K [mPa·s]
x1 = 0.0999	882.47	873.48	864.45	0.662	0.586	0.522
x1 = 0.2001	908.43	899.17	889.87	0.714	0.629	0.561
x1 = 0.3	934.33	924.84	915.3	0.775	0.679	0.6
x1 = 0.4001	960.27	950.54	940.77	0.847	0.738	0.651
x1 = 0.4999	986.16	976.2	966.2	0.927	0.806	0.705
x1 = 0.6	1012.09	1001.91	991.69	1.023	0.886	0.772
x1 = 0.7	1038.03	1027.62	1017.19	1.133	0.978	0.846
x1 = 0.8	1063.99	1053.37	1042.71	1.255	1.077	0.926
x1 = 0.9	1090.06	1079.25	1068.37	1.385	1.179	1.008
x1 = 1	1116.24	1105.23	1094.13	1.519	1.279	1.089

COC(=O)CCCCl [methyl 4-chlorobutanoate] + Cc1cccc(C)c1
[1]
Conditions	mass density, 298.15 K [kg/m3]	mass density, 308.15 K [kg/m3]	mass density, 318.15 K [kg/m3]	viscosity, 298.15 K [mPa·s]	viscosity, 308.15 K [mPa·s]	viscosity, 318.15 K [mPa·s]
x1 = 0.0999	885.23	876.33	867.38	0.639	0.571	0.512
x1 = 0.1999	910.66	901.49	892.27	0.7	0.624	0.55
x1 = 0.2999	936.14	926.72	917.26	0.769	0.674	0.596
x1 = 0.399	961.41	951.74	942.03	0.843	0.737	0.649
x1 = 0.4999	987.21	977.32	967.37	0.928	0.807	0.706
x1 = 0.5995	1012.73	1002.6	992.39	1.022	0.882	0.77
x1 = 0.6996	1038.43	1028.06	1017.63	1.128	0.966	0.839
x1 = 0.7992	1064.11	1053.51	1042.83	1.238	1.062	0.92
x1 = 0.8999	1090.15	1079.3	1068.38	1.368	1.163	1.004
x1 = 1	1116.24	1105.22	1094.13	1.519	1.279	1.089

Cc1ccccc1 [toluene] + COC(=O)CCCCl
[1], x2 = 0
Conditions	mass density [kg/m3]	viscosity [mPa·s]
298.15 K	862.18	0.561
308.15 K	852.81	0.499
318.15 K	843.4	0.446

Cc1cccc(C)c1 [1,3-dimethylbenzene]
[2]
Conditions	mass density [kg/m3]	viscosity [mPa·s]
298.15 K	859.83	0.587
308.15 K	851.19	0.524
318.15 K	842.49	0.471

Cc1ccc(C)cc1 [1,4-dimethylbenzene] + COC(=O)CCCCl
[1], x2 = 0
Conditions	mass density [kg/m3]	viscosity [mPa·s]
298.15 K	856.68	0.609
308.15 K	847.96	0.541
318.15 K	839.2	0.484
